From patent US20200360520A1, “USE OF RIFAMYCIN-QUINOLIZIDONE COUPLING MOLECULE” (priority 2019, published 2020)
Values after ≈ are worked out from the molar mass of the structure shown. Like-named read-outs stand apart in the source and are kept apart here. Values belong to the compound of their own block, whether it stands above or below them.

How the values were obtained:
Assay type in all cases: cell-based
[1] = system: Mycobacterium avium; assay: MBC test (plating on agar, CFU count); settings: Mycobacterium avium, read-out: Minimum Bactericidal Concentration (MBC)
[2] = system: Mycobacterium avium; assay: MIC by micro broth dilution method (resazurin microtiter assay); settings: read-out: Minimum Inhibitory Concentration (MIC)
[3] = system: Mycodacterium chelonei; assay: as above; settings: MH Culture Medium; Chelonei (standard strain); read-out: Minimum Inhibitory Concentration (MIC)
[4] = system: Mycobacterium abscessus; assay: MBC test (plating on agar, CFU count)
[5] = system: Mycobacterium fortuitum; assay: MIC by micro broth dilution method (resazurin microtiter assay); settings: Mycolicibacterium fortuitum, MH Culture Medium, read-out: Minimum Inhibitory Concentration (MIC)
[6] = system: Mycobacterium abscessus; assay: as above; settings: Mycobacteroides abscessus, read-out: Minimum Inhibitory Concentration (MIC)
[7] = system: Mycobacterium kansasii; assay: as above; settings: Mycobacterium kansasii, Mycobacterium kansasii, read-out: Minimum Inhibitory Concentration (MIC)
[8] = system: Mycobacterium massiliense; assay: as above; settings: for MIC: Mycobacteroides abscessus, read-out: Minimum Inhibitory Concentration (MIC)
[9] = system: Mycobacterium kansasii; assay: MBC test (plating on agar, CFU count); settings: Mycobacterium kansasii, Mycobacterium kansasii, read-out: Minimum Bactericidal Concentration (MBC)
[10] = system: Mycobacterium intracellulare; assay: MIC by micro broth dilution method (resazurin microtiter assay); settings: Mycobacterium intracellulare, MH Culture Medium, read-out: Minimum Inhibitory Concentration (MIC)
[11] = MH Culture Medium, Avium (standard strain)
[12] = MH Culture Medium, clinically isolated strain Avium (S31)
[13] = MH Culture Medium, clinically isolated strain Avium (S123)
[14] = MH Culture Medium, clinically isolated strain Avium (S559)
[15] = MH Culture Medium, clinically isolated strain Avium (S568)
[16] = MH Culture Medium, clinically isolated strain Avium (S577)
[17] = MH Culture Medium, clinically isolated strain Avium (S597)
[18] = MH Culture Medium, clinically isolated strain Avium (S602)
[19] = clinically isolated strain Fortuitum (S103)
[20] = clinically isolated strain Fortuitum (S111)
[21] = MH Culture Medium, Kansasii (standard strain)
[22] = MH Culture Medium, clinically isolated strain Kansasii (S9)
[23] = MH Culture Medium, clinically isolated strain Kansasii (S199)
[24] = MH Culture Medium, clinically isolated strain Kansasii (S520)
[25] = MH Culture Medium, clinically isolated strain Kansasii (S609)
[26] = MH Culture Medium, clinically isolated strain Massiliense (D18)
[27] = MH Culture Medium, clinically isolated strain Massiliense (D10)
[28] = Intracellulare (standard strain)
[29] = clinically isolated strain Intracellulare (S90)
[30] = clinically isolated strain Intracellulare (S261)
[31] = clinically isolated strain Intracellulare (S269)
[32] = clinically isolated strain Intracellulare (S290)
[33] = clinically isolated strain Intracellulare (S291)
[34] = clinically isolated strain Intracellulare (S298)
[35] = clinically isolated strain Intracellulare (S541)
[36] = clinically isolated strain Intracellulare (S623)
[37] = clinically isolated strain Intracellulare (ZPS)
[38] = clinically isolated strain intracellulare (S442)
[39] = MH Culture Medium, clinically isolated strain Massiliense (D14)

Structure (SMILES): CC[C@H]1OC(=O)[C@H](C)[C@@H](O[C@H]2C[C@@](C)(OC)[C@@H](O)[C@H](C)O2)[C@H](C)[C@@H](O[C@@H]2O[C@H](C)C[C@H](N(C)C)[C@H]2O)[C@](C)(OC)C[C@@H](C)C(=O)[C@H](C)[C@@H](O)[C@]1(C)O [Clarithromycin]
MBC ([1]; 7H9 Culture Medium, Mycobacterium avium Rough): > 64 µg/mL | MBC ([1]; 7H9 Culture Medium, Mycobacterium avium Smooth): > 64 µg/mL | MBC ([1]; MH Culture Medium, Mycobacterium avium Rough): > 64 µg/mL | MBC ([1]; MH Culture Medium, Mycobacterium avium Smooth): > 64 µg/mL | MIC ([2]; 7H9 Broth, Mycobacterium avium Rough): > 64 µg/mL | MIC ([2]; 7H9 Broth, Mycobacterium avium Smooth): 32 µg/mL (≈ 42.8 µM) | MIC ([2]; MH Broth, Mycobacterium avium Rough): > 64 µg/mL | MIC ([2]; MH Broth, Mycobacterium avium Smooth): > 64 µg/mL | MIC [2, 11]: 0.0625 µg/mL (≈ 0.0836 µM) | MIC [2, 12]: 0.125 µg/mL (≈ 0.167 µM) | MIC [2, 13]: 0.5 µg/mL (≈ 0.668 µM) | MIC [2, 14]: 0.25 µg/mL (≈ 0.334 µM) | MIC [2, 15]: 4 µg/mL (≈ 5.35 µM) | MIC [2, 16]: 0.25 µg/mL (≈ 0.334 µM) | MIC [2, 17]: 1 µg/mL (≈ 1.34 µM) | MIC [2, 18]: 1 µg/mL (≈ 1.34 µM) | MIC [3]: 0.5 µg/mL (≈ 0.668 µM) | Minimum Bactericidal Concentration (MBC) ([4]; MH Culture Medium): >64 µg/mL | MBC ([4]; Mycobacteroides abscessus, 7H9 Culture Medium, read-out: Minimum Bactericidal Concentration (MBC)): > 64 µg/mL | MIC ([5]; Fortuitum (standard strain)): 32 µg/mL (≈ 42.8 µM) | MIC [5, 19]: > 64 µg/mL | MIC [5, 20]: 2 µg/mL (≈ 2.67 µM) | MIC ([6]; 7H9 Broth): 16 µg/mL (≈ 21.4 µM) | MIC ([6]; MH Broth): 64 µg/mL (≈ 85.6 µM) | MIC ([7]; 7H9 Broth): 2 µg/mL (≈ 2.67 µM) | MIC ([7]; MH Broth): 2 µg/mL (≈ 2.67 µM) | MIC [7, 21]: 0.0625 µg/mL (≈ 0.0836 µM) | MIC [7, 22]: 0.125 µg/mL (≈ 0.167 µM) | MIC [7, 23]: 0.0625 µg/mL (≈ 0.0836 µM) | MIC [7, 24]: 0.0625 µg/mL (≈ 0.0836 µM) | MIC [7, 25]: 0.125 µg/mL (≈ 0.167 µM) | Minimum Inhibitory Concentration (MIC) [8, 26]: 0.0625 µg/mL | MIC [8, 27]: 0.25 µg/mL (≈ 0.334 µM) | MIC [8]: 0.0625 µg/mL (≈ 0.0836 µM) | MBC ([9]; 7H9 Culture Medium): 64 µg/mL (≈ 85.6 µM) | MBC ([9]; MH Culture Medium): > 64 µg/mL | MIC [10, 28]: 0.0625 µg/mL (≈ 0.0836 µM) | MIC [10, 29]: 1 µg/mL (≈ 1.34 µM) | MIC [10, 30]: 1 µg/mL (≈ 1.34 µM) | MIC [10, 31]: 1 µg/mL (≈ 1.34 µM) | MIC [10, 32]: 1 µg/mL (≈ 1.34 µM) | MIC [10, 33]: 1 µg/mL (≈ 1.34 µM) | MIC [10, 34]: 2 µg/mL (≈ 2.67 µM) | MIC [10, 35]: 64 µg/mL (≈ 85.6 µM) | MIC [10, 36]: 4 µg/mL (≈ 5.35 µM) | MIC [10, 37]: 1 µg/mL (≈ 1.34 µM) | MIC [10, 38]: 2 µg/mL (≈ 2.67 µM)

MIC [2, 11]: 1 µg/mL (≈ 2.49 µM) | MIC [2, 12]: 8 µg/mL (≈ 19.9 µM) | MIC [2, 13]: 0.5 µg/mL (≈ 1.25 µM) | MIC [2, 14]: 1 µg/mL (≈ 2.49 µM) | MIC [2, 15]: 0.5 µg/mL (≈ 1.25 µM) | MIC [2, 16]: 0.5 µg/mL (≈ 1.25 µM) | MIC [2, 17]: 2 µg/mL (≈ 4.98 µM) | MIC [2, 18]: 4 µg/mL (≈ 9.96 µM) | MIC [3]: 4 µg/mL (≈ 9.96 µM) | MIC ([5]; Fortuitum (standard strain)): 1 µg/mL (≈ 2.49 µM) | MIC [5, 19]: 1 µg/mL (≈ 2.49 µM) | MIC [5, 20]: 0.5 µg/mL (≈ 1.25 µM) | MIC [7, 21]: 0.0625 µg/mL (≈ 0.156 µM) | MIC [7, 22]: 0.0625 µg/mL (≈ 0.156 µM) | MIC [7, 23]: 0.0625 µg/mL (≈ 0.156 µM) | MIC [7, 24]: 0.0625 µg/mL (≈ 0.156 µM) | MIC [7, 25]: 0.0625 µg/mL (≈ 0.156 µM) | MIC [8, 27]: 32 µg/mL (≈ 79.7 µM) | MIC [8, 39]: 32 µg/mL (≈ 79.7 µM) | MIC [8, 26]: 8 µg/mL (≈ 19.9 µM) | MIC [10, 28]: 0.25 µg/mL (≈ 0.623 µM) | MIC [10, 29]: 2 µg/mL (≈ 4.98 µM) | MIC [10, 30]: 2 µg/mL (≈ 4.98 µM) | MIC [10, 31]: 2 µg/mL (≈ 4.98 µM) | MIC [10, 32]: 2 µg/mL (≈ 4.98 µM) | MIC [10, 33]: 1 µg/mL (≈ 2.49 µM) | MIC [10, 34]: 2 µg/mL (≈ 4.98 µM) | MIC [10, 35]: 64 µg/mL (≈ 159 µM) | MIC [10, 36]: 2 µg/mL (≈ 4.98 µM) | MIC [10, 37]: 1 µg/mL (≈ 2.49 µM) | MIC [10, 38]: 2 µg/mL (≈ 4.98 µM)
Structure (SMILES): COc1c(N2C[C@@H]3CCCN[C@@H]3C2)c(F)cc2c(=O)c(C(=O)O)cn(C3CC3)c12 [Moxifloxacin, moxifloxacin]

MIC [2, 11]: 0.0625 µg/mL (≈ 0.0738 µM) | MIC [2, 12]: 0.0625 µg/mL (≈ 0.0738 µM) | MIC [2, 13]: 0.0625 µg/mL (≈ 0.0738 µM) | MIC [2, 14]: 0.0625 µg/mL (≈ 0.0738 µM) | MIC [2, 15]: 0.0625 µg/mL (≈ 0.0738 µM) | MIC [2, 16]: 0.0625 µg/mL (≈ 0.0738 µM) | MIC [2, 17]: 0.0625 µg/mL (≈ 0.0738 µM) | MIC [2, 18]: 0.0625 µg/mL (≈ 0.0738 µM) | MIC [3]: 64 µg/mL (≈ 75.6 µM) | MIC ([5]; Fortuitum (standard strain)): 4 µg/mL (≈ 4.72 µM) | MIC [5, 19]: 32 µg/mL (≈ 37.8 µM) | MIC [5, 20]: 4 µg/mL (≈ 4.72 µM) | MIC [7, 21]: 0.0625 µg/mL (≈ 0.0738 µM) | MIC [7, 22]: 0.0625 µg/mL (≈ 0.0738 µM) | MIC [7, 23]: 0.0625 µg/mL (≈ 0.0738 µM) | MIC [7, 24]: 0.0625 µg/mL (≈ 0.0738 µM) | MIC [7, 25]: 0.0625 µg/mL (≈ 0.0738 µM) | MIC [8, 27]: > 64 µg/mL | MIC [8, 39]: 64 µg/mL (≈ 75.6 µM) | MIC [8, 26]: 64 µg/mL (≈ 75.6 µM) | MIC [10, 28]: 0.0625 µg/mL (≈ 0.0738 µM) | MIC [10, 29]: 0.125 µg/mL (≈ 0.148 µM) | MIC [10, 30]: 0.25 µg/mL (≈ 0.295 µM) | MIC [10, 31]: 0.0625 µg/mL (≈ 0.0738 µM) | MIC [10, 32]: 0.0625 µg/mL (≈ 0.0738 µM) | MIC [10, 33]: 0.0625 µg/mL (≈ 0.0738 µM) | MIC [10, 34]: 0.5 µg/mL (≈ 0.59 µM) | MIC [10, 35]: 0.125 µg/mL (≈ 0.148 µM) | MIC [10, 36]: 0.25 µg/mL (≈ 0.295 µM) | MIC [10, 37]: 0.0625 µg/mL (≈ 0.0738 µM) | MIC [10, 38]: 0.0625 µg/mL (≈ 0.0738 µM)
Structure (SMILES): CO[C@H]1/C=C/O[C@@]2(C)Oc3c(C)c(O)c4c(c3C2=O)C2=NC3(CCN(CC(C)C)CC3)NC2=C(NC(=O)/C(C)=C\C=C\[C@H](C)[C@H](O)[C@@H](C)[C@@H](O)[C@@H](C)[C@H](OC(C)=O)[C@@H]1C)C4=O [Rifabutin, rifabutin]
